In patent US9890192B2, “Targeted nitroxide agents” (University of Pittsburgh—of the Commonwealth System of …, priority 2008, dated 2018):
“Also recorded” adds a separate entry of the source.

Assays:
[1] = tested on: mouse embryonic cells (MEC); test: EPR-based analysis of integration and reduction of nitroxide Gramicidin S-peptidyl conjugates in MECs; assay type: cell-based; settings: 10 μM, whole cells, cytosol fractions
Description: Electron paramagnetic resonance (“EPR”) spectroscopy was used to monitor the cellular delivery of compounds 5a and 5b shown in FIG. 3 in mouse embryonic cells (“MEC”).
The following conditions were used during the EPR-based analysis of the integration and reduction of nitroxide Gramicidin S-peptidyl conjugates in MECs. The MECs at a concentration of 10 million MECs per mL were incubated with 10 μM of 4-AT and compound 5a, respectively. Recovered nitroxide radicals in whole cells, mitochondria, and cytosol fractions were resuspended in phosphate buffer saline (“PBS”) in the presence and absence, respectively, of 2 μM K3Fe(CN)6.

[2] = tested on: phospholipids in intestinal mucosa; test: Peroxidation of phospholipids in gut mucosa after hemorrhagic shock; assay type: in vivo, rat; settings: 10 μM intraluminal; 2 h HS
Source text: Assay for peroxidation of phospholipods. Gut mucosal samples were homogenized. Lipids were extracted from homogenates using the Folch procedure, see M. Lees and G. H. Sloan-Stanley, A simple method for isolation and purification of total lipids from animal tissue, J. BIOL. CHEM. 226:497-509 (1957), and resolved by 2D HPTLC (High Performance Thin Layer Chromatography) as previously described, see Kagan, V. E. et al., A role for oxidative stress in apoptosis: Oxidation and externalization of phosphatidylserine is required for macrophage clearance of cell undergoing Fas-mediated apoptosis, J Immunol. 169:487-489 (2002). Spots of phospholipids were scraped from HPTLC plates and phospholipids were extracted from silica. Lipid phosphorus was determined by a micro-method, see Bottcher, C. J. F. et al, A rapid and sensitive sub-micro phosphons determination. Anal Chim Acta. 24: 203-204 (1961).
Oxidized phospholipids were hydrolyzed by pancreatic phospholipase A2 (2 U/μl) in 25 mM phosphate buffer containing 1 mM CaCl2. 0.5 mM EDTA and 0.5 mM sodium dodecyl sulfate (SDS) (pH 8.0, at room temperature for 30 min). Fatty acid hydroperoxides formed were determined by fluorescence HPLC of resorufin stoichiometrically formed during their microperoxidase 11-catalized reduction in presence of Amplex Red (for 40 min at 4° C.) (8). Fluorescence HPLC (Eclipse XDB-C18 column, 5 μm, 150×4.6 mm, mobile phase was composed of 25 mM disodium phosphate buffer (pH 7.0)/methanol (60:40 v/v); excitation wavelength 560 nm, emission wavelength 590 nm) was performed on a Shimadzu LC-100AT HPLC system equipped with fluorescence detector (RF-10Axl) and autosampler (SIL-10AD).
In the subsequent series of in vivo studies, the affect of intraluminal XJB-5-131 on hemorrhage-induced peroxidation of phospholipids in intestinal mucosa was examined. […] In a preferred embodiment, 0.3 mL of test solution filled the lumen of each ileal compartment.
After two hours of HS, samples of ileal mucosa from the gut sacs filled with the vehicle and XJB-5-131 were obtained and compared with ileal mucosa of normal MECs. […]

[3] = tested on: rats subjected to volume-controlled hemorrhagic shock; test: Survival of rats subjected to volume-controlled hemorrhagic shock; assay type: in vivo, rat; settings: 2 μmol/kg intravenous; for survival vs vehicle: last 20 min of hemorrhage
Description: Survival of rats subjected to volume-controlled hemorrhagic shock. Following surgical preparation and a 5-min stabilization period to obtain baseline readings, rats were subjected to hemorrhagic shock. Bleeding was carried out in 2 phases.
Initially, 21 ml/kg of blood was withdrawn over 20 min. Immediately thereafter, an additional 12.5 ml/kg of blood was withdrawn over 40 min. Thus, hemorrhage occurred over a total period of 60 min and the total blood loss was 33.5 ml/kg or approximately 55% of the total blood volume. Rats were randomly assigned to receive XJB-5-131 (2 μmol/kg) or its vehicle, a 33:67 (v/v) mixture of DMSO and normal saline. XJB-5-131 solution or vehicle alone was administered as a continuous infusion during the last 20 min of the hemorrhage period. The total volume of fluid infused was 2.8 ml/kg and it was administered intravenously using a syringe pump (KD100, KD Scientific, New Hope, Pa.). […] At the end of the 6 hour observation period, animals that were still alive were euthanized with an overdose of KCl.
A total of sixteen rats were tested in this study. Rats were treated with 2.8 ml/kg of vehicle or the same volume of XJB-5-131 solution during the final 20 min of the bleeding protocol. The total dose of XJB-5-131 infused was 2 μmol/kg. Following profound hemorrhagic shock consistent with the protocol described above for the prior studies, thirteen survived for at least 60 min and received the full dose of either XJB-5-131 solution or the vehicle, a 33:67 (v/v) mixture of DMSO and normal saline. […] None of the between-group differences were statistically significant.

progeroid Ercc1−/Δ mice = test: Signs of aging in progeroid Ercc1−/Δ mice; assay type: in vivo, mouse; settings: 2 mg/kg intraperitoneally three times per week
Description: To assess the effectiveness of XJB-5-131 in inhibiting degeneration and/or signs of aging, the compound was administered, over an 18-21 week period, progeroid Ercc1^−/Δ mice, at a dose of 2 mg/kg in sunflower oil carrier (to promote solubility) administered intraperitoneally three times per week (FIG. 32). Sunflower seed oil was administered to twin Ercc1^−/Δ mice according to the same schedule as a control. The treated and control mice were monitored twice a week for weight and symptom/sign development.
FIG. 33 presents a summary table showing the results of the treatment with XJB-5-131 (“XJB” in this figure), relative to control (sunflower seed oil) after treatment from 5 wks of life until death. The numbers indicate the average age at onset of each age-related symptom for mice treated with XJB-5-131 or vehicle only (oil) (n=5 mice per group). […] Of note, all of the signs of neurodegeneration, including dystonia, trembling, ataxia, wasting and urinary incontinence were delayed in the treated animals, providing strong evidence that XJB-5-131 protects neurons against degenerative changes caused by oxidative stress.
To assess the ability of XJB-5-131 to inhibit deterioration of intervertebral discs (an index of degenerative disease of the vertebra), the level of glycosaminoglycan in the discs in treated and control mice were measured, and the results are shown in FIG. 34. The intervertebral discs of treated mice contained approximately 30 percent more glycosaminoglycan relative to control mice, indicating inhibition of disc degeneration.

[4] = tested on: MEF cells from Ercc1−/− mouse embryos; test: Senescence, DNA damage and apoptosis in Ercc1−/− MEF cells under ambient oxygen; assay type: cell-based; settings: 500 nM
Description: Graphs showing weight over time of treated, untreated and control animals are shown in FIG. 36A-B. To assess the impact of XJB-5-131 at a cellular level, a number of experiments were carried out using mouse embryonic fibroblasts (“MEF”) cells harvested from Ercc1^−/− mouse embryos.

**Q.** With CC(C)C[C@@H](/C=C/[C@H](Cc1ccccc1)C(=O)N1CCC[C@H]1C(=O)N[C@H](C(=O)N[C@@H](CCCNC(=O)OCc1ccccc1)C(=O)NC1CC(C)(C)N([O])C(C)(C)C1)C(C)C)NC(=O)OC(C)(C)C [XJB-5-131] as the compound, how does the “EPR signals of nitroxide radicals; integration into cells and mitochondria” value [1] read?
**A.** The value was “concentrated in the mitochondria”.

**Q.** And the “peroxidation of phosphatidylcholine (PC)” value [2]?
**A.** The value was “no effect”.

**Q.** And the “peroxidation of phosphatidylethanolamine (PE)” value [2]?
**A.** The value was “only had a small effect”.

**Q.** What about the “peroxidation of phosphatidylserine (PS)” value [2] of the same compound?
**A.** Its value is “no effect”.

**Q.** And the “rats surviving longer than 3 hours after completion of the hemorrhage protocol” value [3]?
**A.** Its value is “Three of the six”.

**Q.** What about the “rats surviving the whole 6 hour post-bleeding observation period” value [3] of the same compound?
**A.** The value was “one”.

**Q.** What about the survival vs vehicle [3] of the same compound?
**A.** Its survival vs vehicle is “survived significantly longer”.

**Q.** And the survival vs vehicle ([3]; listed as XJR-5-131)?
**A.** The survival vs vehicle was “significantly prolonged the survival”.

**Q.** And the “age at onset of age-related symptoms” value (progeroid Ercc1−/Δ mice)?
**A.** The value was “significantly delayed”.

**Q.** What about the “body weight / tolerability” value (progeroid Ercc1−/Δ mice) of the same compound?
**A.** The value was “did not lose weight; also recorded: does not cause weight loss”.

**Q.** What about the “glycosaminoglycan in intervertebral discs, more relative to control mice” value (progeroid Ercc1−/Δ mice) of the same compound?
**A.** The value was “approximately 30%”.

**Q.** What about the overall aging score (progeroid Ercc1−/Δ mice) of the same compound?
**A.** The overall aging score was “significantly improved”.

**Q.** What about the “signs of neurodegeneration (dystonia, trembling, ataxia, wasting, urinary incontinence)” value (progeroid Ercc1−/Δ mice) of the same compound?
**A.** The value was “delayed”.

**Q.** What about the SA-β galactosidase staining [4] of the same compound?
**A.** Its SA-β galactosidase staining is “notably less”.

**Q.** And the apoptosis [4]?
**A.** Its apoptosis is “did not reduce the amount of apoptosis”.

**Q.** What about the γH2AX foci [4] of the same compound?
**A.** Its γH2AX foci is “reduce the number of γH2AX foci”.
